Like-named read-outs stand apart in the source and are kept apart here.
Assays:
Assay type in all cases: biochemical
human TOR = biological target: T1, human TOR (Homo sapiens, UniProt P42345); assay: mTOR enzyme assay (DELFIA, His6-S6K substrate); settings: read-out: mTOR Kinase Avg. IC50
T1 construct: FLAG

PI3K-gamma = PI3K-gamma (Homo sapiens, UniProt P48736); assay: PI3K-gamma fluorescence polarization assay; settings: PI3Kγ Avg. IC50
Summary of the method: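 Inhibition is derived from a polarization signal: after a 1 h, 25° C kinase step (25 μM ATP, 2.5 μM diC8-PIP2, pH 7), EDTA stops the reaction and the GRP1 PH domain/TMR-IP4 pair reports lipid product.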

PI3K-alpha = PI3K-alpha (Homo sapiens, UniProt P42336); assay: PI3K-alpha fluorescence polarization assay
PI3K-beta = PI3K-beta (Homo sapiens, UniProt P42338); assay: PI3K-beta fluorescence polarization assay; settings: read-out: PI3Kβ Avg. IC50
Description: PI3K-Alpha, PI3K-Beta, PI3K-Gamma, and PI3K-delta Fluorescence Polarization Assay Protocols
PI3-Kinase reactions were performed in 5 mM HEPES, pH 7, 2.5 mM MgCl2, and 25 μM ATP, with diC8-PI(4,5)P2 (Echelon, Salt Lake City Utah) as substrate. Nunc 384-well black polypropylene fluorescent plates were used for PI3K assays. Reactions were quenched by the addition of EDTA to a final concentration of 10 mM. Final reaction volumes were 10 μl. For evaluation of PI3K inhibitors, 5 ng of enzyme (PI3K-alpha, beta, gamma, or delta) and 2.5 μM of substrate was used per […] reaction volume, and inhibitor concentrations ranged from 100 μM to 20 μM; the final level of DMSO in reactions never exceeded 2%. Reactions were allowed to proceed for one hour at 25° C. After 1 hour, GST-tagged GRP1 (general receptor for phosphoinositides) PH domain fusion protein was added to a final concentration of 100 nM, and BODIPY-TMRI(1,3,4,5)P4 (Echelon) was also added to a final concentration of 5 nM. Final sample volumes were 25 μl with a final DMSO concentration of 0.8%. Assay Plates were read on Perkin-Elmer Envision plate readers with appropriate filters for Tamra [BODIPY-TMRI(1,3,4,5)P4]. Data obtained were used to calculate enzymatic activity and enzyme inhibition by inhibitor compounds.

PI3K-delta = PI3K-delta (Homo sapiens, UniProt O00329); assay: PI3K-delta fluorescence polarization assay; settings: read-out: PI3Kδ Avg. IC50
PI3K-delta, sequence (O00329 whole entry, species assumed): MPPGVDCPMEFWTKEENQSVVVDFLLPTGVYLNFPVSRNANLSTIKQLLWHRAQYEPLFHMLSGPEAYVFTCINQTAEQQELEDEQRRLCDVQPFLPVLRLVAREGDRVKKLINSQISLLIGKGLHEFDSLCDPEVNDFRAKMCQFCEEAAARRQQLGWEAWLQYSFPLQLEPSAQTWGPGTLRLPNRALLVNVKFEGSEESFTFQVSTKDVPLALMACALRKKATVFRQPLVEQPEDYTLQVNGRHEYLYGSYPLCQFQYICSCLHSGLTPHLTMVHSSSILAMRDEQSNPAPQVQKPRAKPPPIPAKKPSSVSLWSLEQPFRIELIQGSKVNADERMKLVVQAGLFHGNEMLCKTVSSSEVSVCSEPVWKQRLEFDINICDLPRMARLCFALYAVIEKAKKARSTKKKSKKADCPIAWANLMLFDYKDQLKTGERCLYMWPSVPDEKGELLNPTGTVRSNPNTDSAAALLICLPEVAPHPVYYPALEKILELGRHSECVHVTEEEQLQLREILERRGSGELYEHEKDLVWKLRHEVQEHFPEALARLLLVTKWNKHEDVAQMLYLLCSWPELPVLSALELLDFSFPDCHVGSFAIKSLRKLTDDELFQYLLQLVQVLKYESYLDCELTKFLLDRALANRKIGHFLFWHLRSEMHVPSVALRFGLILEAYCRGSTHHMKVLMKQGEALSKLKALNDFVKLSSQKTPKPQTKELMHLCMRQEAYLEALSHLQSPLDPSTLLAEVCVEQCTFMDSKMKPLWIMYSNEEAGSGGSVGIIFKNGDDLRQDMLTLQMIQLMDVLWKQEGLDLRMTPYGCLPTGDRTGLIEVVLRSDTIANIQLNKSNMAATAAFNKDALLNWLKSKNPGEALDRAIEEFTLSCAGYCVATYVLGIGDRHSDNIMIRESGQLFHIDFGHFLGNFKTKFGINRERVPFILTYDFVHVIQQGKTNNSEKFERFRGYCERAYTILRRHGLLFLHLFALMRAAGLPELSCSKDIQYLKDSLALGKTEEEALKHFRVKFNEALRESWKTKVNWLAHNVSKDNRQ
PI3K-delta, sequence (P27986 whole entry partner, species assumed): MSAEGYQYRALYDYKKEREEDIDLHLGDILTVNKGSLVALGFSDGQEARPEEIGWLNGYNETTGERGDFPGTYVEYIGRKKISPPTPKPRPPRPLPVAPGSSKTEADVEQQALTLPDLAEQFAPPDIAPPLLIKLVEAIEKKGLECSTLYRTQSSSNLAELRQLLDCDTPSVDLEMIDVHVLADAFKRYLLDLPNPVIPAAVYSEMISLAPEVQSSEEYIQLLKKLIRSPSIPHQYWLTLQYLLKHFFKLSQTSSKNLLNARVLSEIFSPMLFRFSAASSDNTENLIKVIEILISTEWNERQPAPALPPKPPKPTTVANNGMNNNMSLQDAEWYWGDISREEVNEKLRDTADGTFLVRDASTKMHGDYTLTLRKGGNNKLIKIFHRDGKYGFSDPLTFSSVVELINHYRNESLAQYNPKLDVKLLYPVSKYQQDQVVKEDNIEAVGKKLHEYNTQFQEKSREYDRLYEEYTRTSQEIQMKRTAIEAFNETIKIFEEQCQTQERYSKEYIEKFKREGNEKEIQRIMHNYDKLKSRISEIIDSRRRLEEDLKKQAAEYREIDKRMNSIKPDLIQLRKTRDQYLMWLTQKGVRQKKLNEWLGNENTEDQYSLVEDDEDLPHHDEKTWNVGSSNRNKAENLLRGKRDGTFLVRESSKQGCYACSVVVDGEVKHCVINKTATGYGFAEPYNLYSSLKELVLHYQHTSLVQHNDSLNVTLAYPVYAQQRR

PI3K-gamma, sequence (P48736 whole entry, species assumed, the tested form may be a part): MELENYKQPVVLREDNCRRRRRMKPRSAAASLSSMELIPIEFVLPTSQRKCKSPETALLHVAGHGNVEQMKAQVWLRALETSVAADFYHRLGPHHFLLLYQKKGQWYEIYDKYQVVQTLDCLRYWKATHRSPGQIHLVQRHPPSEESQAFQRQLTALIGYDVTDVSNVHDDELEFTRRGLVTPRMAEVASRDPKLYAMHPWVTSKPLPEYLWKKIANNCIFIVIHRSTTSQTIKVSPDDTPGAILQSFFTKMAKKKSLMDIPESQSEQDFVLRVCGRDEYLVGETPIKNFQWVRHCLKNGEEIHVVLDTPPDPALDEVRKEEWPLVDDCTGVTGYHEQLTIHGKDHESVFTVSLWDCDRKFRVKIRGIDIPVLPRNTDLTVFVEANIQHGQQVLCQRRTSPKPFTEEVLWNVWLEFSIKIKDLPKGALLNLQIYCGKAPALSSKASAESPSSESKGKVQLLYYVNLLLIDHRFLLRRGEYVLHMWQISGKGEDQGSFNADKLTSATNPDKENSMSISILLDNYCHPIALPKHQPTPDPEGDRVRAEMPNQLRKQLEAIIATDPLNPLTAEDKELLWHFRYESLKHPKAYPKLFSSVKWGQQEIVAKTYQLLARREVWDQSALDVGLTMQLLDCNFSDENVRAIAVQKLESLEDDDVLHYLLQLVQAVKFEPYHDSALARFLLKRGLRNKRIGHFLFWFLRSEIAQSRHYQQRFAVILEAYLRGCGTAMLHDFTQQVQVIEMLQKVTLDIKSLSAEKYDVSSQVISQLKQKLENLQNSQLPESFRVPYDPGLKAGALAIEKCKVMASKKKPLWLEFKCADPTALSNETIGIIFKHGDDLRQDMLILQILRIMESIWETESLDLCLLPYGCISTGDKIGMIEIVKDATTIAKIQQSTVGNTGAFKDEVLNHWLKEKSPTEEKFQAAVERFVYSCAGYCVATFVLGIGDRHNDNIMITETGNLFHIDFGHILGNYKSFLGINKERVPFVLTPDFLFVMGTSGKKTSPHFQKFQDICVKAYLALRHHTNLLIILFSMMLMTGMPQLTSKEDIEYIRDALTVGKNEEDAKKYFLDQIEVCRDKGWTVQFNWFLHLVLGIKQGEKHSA
PI3K-beta, sequence (P42338 whole entry, species assumed): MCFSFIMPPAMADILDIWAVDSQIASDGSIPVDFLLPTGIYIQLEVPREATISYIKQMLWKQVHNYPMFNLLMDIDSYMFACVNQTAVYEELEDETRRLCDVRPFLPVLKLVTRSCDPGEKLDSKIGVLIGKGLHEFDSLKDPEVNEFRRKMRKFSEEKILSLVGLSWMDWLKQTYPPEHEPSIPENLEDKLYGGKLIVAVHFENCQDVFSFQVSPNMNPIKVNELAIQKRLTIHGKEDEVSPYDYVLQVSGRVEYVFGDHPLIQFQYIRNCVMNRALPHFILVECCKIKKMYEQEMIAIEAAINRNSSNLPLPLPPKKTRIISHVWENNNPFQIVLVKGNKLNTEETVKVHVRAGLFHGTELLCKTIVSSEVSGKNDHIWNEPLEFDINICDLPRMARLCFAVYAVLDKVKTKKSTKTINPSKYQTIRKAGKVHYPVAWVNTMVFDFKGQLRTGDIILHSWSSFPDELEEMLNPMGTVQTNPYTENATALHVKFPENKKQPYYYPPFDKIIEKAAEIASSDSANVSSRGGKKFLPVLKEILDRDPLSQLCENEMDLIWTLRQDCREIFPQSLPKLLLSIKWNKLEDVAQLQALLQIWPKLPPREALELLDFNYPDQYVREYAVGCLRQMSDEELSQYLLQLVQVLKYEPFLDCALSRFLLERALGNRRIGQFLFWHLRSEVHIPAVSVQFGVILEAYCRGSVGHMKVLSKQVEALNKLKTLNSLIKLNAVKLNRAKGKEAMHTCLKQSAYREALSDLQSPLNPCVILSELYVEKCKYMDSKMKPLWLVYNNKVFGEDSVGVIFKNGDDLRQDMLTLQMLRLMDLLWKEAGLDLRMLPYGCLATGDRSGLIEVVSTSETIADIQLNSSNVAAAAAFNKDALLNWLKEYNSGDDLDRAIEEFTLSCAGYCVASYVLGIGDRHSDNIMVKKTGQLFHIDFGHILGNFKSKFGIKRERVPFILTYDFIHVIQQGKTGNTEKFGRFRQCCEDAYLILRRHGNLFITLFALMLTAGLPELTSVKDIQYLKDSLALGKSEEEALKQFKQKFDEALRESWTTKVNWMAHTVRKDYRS
PI3K-beta, sequence (P27986 whole entry partner, species assumed): as the sequence (P27986 whole entry partner, species assumed) above
PI3K-alpha, sequence (P42336 whole entry, species assumed): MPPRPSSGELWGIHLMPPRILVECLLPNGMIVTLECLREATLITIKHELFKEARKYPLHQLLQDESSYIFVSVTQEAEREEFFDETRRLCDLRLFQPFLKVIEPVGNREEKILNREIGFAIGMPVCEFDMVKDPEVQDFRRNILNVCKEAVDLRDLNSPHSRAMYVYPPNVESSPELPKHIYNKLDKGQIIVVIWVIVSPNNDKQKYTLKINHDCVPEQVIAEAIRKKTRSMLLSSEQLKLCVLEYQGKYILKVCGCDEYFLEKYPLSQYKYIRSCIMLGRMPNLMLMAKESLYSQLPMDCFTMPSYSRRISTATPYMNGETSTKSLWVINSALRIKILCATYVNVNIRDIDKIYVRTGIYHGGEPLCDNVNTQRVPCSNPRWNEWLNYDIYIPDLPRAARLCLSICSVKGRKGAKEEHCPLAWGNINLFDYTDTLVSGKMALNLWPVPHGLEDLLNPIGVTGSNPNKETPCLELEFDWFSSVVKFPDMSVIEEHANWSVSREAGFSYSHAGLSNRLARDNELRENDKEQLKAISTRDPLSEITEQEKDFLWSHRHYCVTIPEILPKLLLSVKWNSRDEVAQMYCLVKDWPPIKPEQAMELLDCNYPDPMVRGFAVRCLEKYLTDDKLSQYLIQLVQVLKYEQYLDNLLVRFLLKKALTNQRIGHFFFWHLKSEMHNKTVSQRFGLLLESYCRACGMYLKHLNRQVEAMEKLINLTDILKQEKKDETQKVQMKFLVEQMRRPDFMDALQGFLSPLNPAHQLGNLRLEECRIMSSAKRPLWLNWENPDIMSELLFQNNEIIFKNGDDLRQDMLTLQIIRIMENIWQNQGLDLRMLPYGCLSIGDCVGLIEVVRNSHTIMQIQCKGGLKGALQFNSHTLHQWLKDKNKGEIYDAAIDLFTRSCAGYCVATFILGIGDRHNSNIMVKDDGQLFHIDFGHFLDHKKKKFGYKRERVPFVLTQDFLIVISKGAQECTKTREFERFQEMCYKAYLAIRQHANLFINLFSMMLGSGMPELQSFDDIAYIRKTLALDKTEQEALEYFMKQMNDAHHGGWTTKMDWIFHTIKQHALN
PI3K-alpha, sequence (P27986 whole entry partner, species assumed): as the sequence (P27986 whole entry partner, species assumed) above

SMILES | IC50 (human TOR) [nM] | IC50 (PI3K-gamma) [nM] | IC50 (PI3K-alpha; read-out: PI3Kα Avg. IC50) [nM] | IC50 (PI3K-beta) [nM] | IC50 (PI3K-delta) [nM] | IC50 (PI3K-alpha; PI3Kα Avg. IC50) [nM]
COc1cc(F)c2[nH]c(-c3c(C)nn(C)c3C)c(/C=C3\Oc4ccc(NC(=O)Nc5ccc(C(=O)N(C)CCN(C)C)cc5)cc4C3=O)c2c1 [Compound 710, N-[2-(dimethylamino)ethyl]-4-({[(2Z)-2-{[7-fluoro-5-methoxy-2-(1,3,5-trimethyl-1H-pyrazol-4-yl)-1H-indol-3-yl]methylidene}-3-oxo-2,3-dihydro-1-benzofuran-5-yl]carbamoyl}amino)-N-methylbenzamide] | < 1 | 2.35 | 0.2 | 0.7 | 0.6 | –
COc1ccc2c(c1)c(/C=C1\Oc3cc(O)cc(O)c3C1=O)cn2CCCN(C)C [Example 323, (2Z)-2-({1-[3-(Dimethylamino)propyl]-5-methoxy-1H-indol-3-yl}methylene)-4,6-dihydroxy-1-benzofuran-3(2H)-one] | 930 | 605 | 20.5 | 120 | 4 | –
COc1ccc2c(c1)c(C=C1Oc3cc(O)cc(O)c3C1=O)cn2CCCCN1CCOCC1 [Example 115, 4,6-dihydroxy-2-{[5-methoxy-1-(4-morpholin-4-ylbutyl)-1H-indol-3-yl]methylene}-1-benzofuran-3(2H)-one] | 980 | 1190 | 39.3 | 136 | 8.5 | –
COc1ccc2c(c1)c(/C=C1\Oc3cc(O)cc(O)c3C1=O)c(C1CC1)n2CCn1cccn1 [Example 340, (2Z)-2-({2-Cyclopropyl-5-methoxy-1-[2-(1H-pyrazol-1-yl)ethyl]-1H-indol-3-yl}methylene)-4,6-dihydroxy-1-benzofuran-3(2H)-one] | < 0.82 | 3 | 2 | 7.5 | 1.6 | –
Cc1c(C=C2Oc3cc(O)cc(O)c3C2=O)c2ccccc2n1CCCCCl [Example 94, 2-{[1-(4-chlorobutyl)-2-methyl-1H-indol-3-yl]methylene}-4,6-dihydroxy-1-benzofuran-3(2H)-one] | > 5000 | 5860 | 2240 | 671 | 1020 | –
COc1ccc2c(c1)c(/C=C1\Oc3cc(O)cc(O)c3C1=O)c(C(F)(F)F)n2CCN1CCN(C)CC1 [Example 336, (2Z)-4,6-Dihydroxy-2-({5-methoxy-1-[2-(4-methylpiperazin-1-yl)ethyl]-2-(trifluoromethyl)-1H-indol-3-yl}methylene)-1-benzofuran-3(2H)-one] | < 22 | 61.7 | 4 | 4.1 | 1 | –
COC(=O)c1ccc2[nH]cc(C=C3Oc4cc(O)cc(O)c4C3=O)c2c1 [Example 166, methyl 3-[(4,6-dihydroxy-3-oxo-1-benzofuran-2(3H)-ylidene)methyl]-1H-indole-5-carboxylate] | 1700 | 180 | 28 | 46 | 59 | –
COc1ccc2c(c1)c(/C=C1\Oc3ccc(NC(=O)Nc4ccc(C(=O)N5CCN(C)CC5)cc4)cc3C1=O)c(C)n2CCN1CCN(C)CC1 [Compound 618, 1-[(2Z)-2-({5-methoxy-2-methyl-1-[2-(4-methylpiperazin-1-yl)ethyl]-1H-indol-3-yl}methylene)-3-oxo-2,3-dihydro-1-benzofuran-5-yl]-3-{4-[(4-methylpiperazin-1-yl)carbonyl]phenyl}urea] | 100 | – | 0.5 | – | 5 | –
COc1ccc2c(c1)c(/C=C1\Oc3cc(O)ccc3C1=O)c(C1CC1)n2CCN1CCN(C)CC1 [Example 362, (2Z)-2-({2-Cyclopropyl-5-methoxy-1-[2-(4-methylpiperazin-1-yl)ethyl]-1H-indol-3-yl}methylene)-6-hydroxy-1-benzofuran-3(2H)-one] | 210 | 329 | 10.5 | 8 | 1.5 | –
COc1ccc2c(c1)c(C=C1Oc3cc(O)cc(O)c3C1=O)c(C)n2CCN1CCN(C)CC1 [Example 108, 4,6-dihydroxy-2-({5-methoxy-2-methyl-1-[2-(4-methylpiperazin-1-yl)ethyl]-1H-indol-3-yl}methylene)-1-benzofuran-3(2H)-one] | < 34 | 474 | – | 7.5 | – | 5
COc1ccc2c(c1)c(C=C1Oc3cc(O)cc(O)c3C1=O)c(C)n2CCN1CCN(CCO)CC1 [Example 109, 4,6-dihydroxy-2-[(1-{2-[4-(2-hydroxyethyl)piperazin-1-yl]ethyl}-5-methoxy-2-methyl-1H-indol-3-yl)methylene]-1-benzofuran-3(2H)-one] | < 23 | 321 | 4.3 | 18 | 2.8 | –
COc1ccc2c(c1)c(/C=C1\Oc3ccc(NC(=O)Nc4ccc(C(=O)N5CCN(C)CC5)cc4)cc3C1=O)c(C)n2CCO [Compound 619, 1-[(2Z)-2-{[1-(2-hydroxyethyl)-5-methoxy-2-methyl-1H-indol-3-yl]methylene}-3-oxo-2,3-dihydro-1-benzofuran-5-yl]-3-{4-[(4-methylpiperazin-1-yl)carbonyl]phenyl}urea] | 38 | – | 0.2 | – | 2.5 | –
COc1ccc2c(c1)c(/C=C1\Oc3cc(O)cc(O)c3C1=O)c(C)n2CCN1CCN(C)CC1 [Example 309, (2Z)-4,6-Dihydroxy-2-({5-methoxy-2-methyl-1-[2-(4-methylpiperazin-1-yl)ethyl]-1H-indol-3-yl}methylene)-1-benzofuran-3(2H)-one] | < 27 | 268 | 2 | 6.5 | – | –
COc1ccc2[nH]c(-c3ccccc3)c(C=C3Oc4cc(O)cc(O)c4C3=O)c2c1 [Example 70, 4,6-dihydroxy-2-[(5-methoxy-2-phenyl-1H-indol-3-yl)methylene]-1-benzofuran-3(2H)-one] | < 30 | 13.4 | – | 26 | 5.3 | –
CCn1c(C)c(/C=C2\Oc3ccc(NC(=O)Nc4ccc(C(=O)N5CCN(C)CC5)cc4)cc3C2=O)c2cc(OC)ccc21 [Compound 620, 1-{(2Z)-2-[(1-ethyl-5-methoxy-2-methyl-1H-indol-3-yl)methylene]-3-oxo-2,3-dihydro-1-benzofuran-5-yl}-3-{4-[(4-methylpiperazin-1-yl)carbonyl]phenyl}urea] | 240 | – | 0.3 | – | 2 | –
CNC(=O)Nc1ccc2c(c1)C(=O)/C(=C/c1c(-c3c(C)nn(C)c3C)[nH]c3ccc(OC)cc13)O2 [Compound 627, 1-[(2Z)-2-{[5-methoxy-2-(1,3,5-trimethyl-1H-pyrazol-4-yl)-1H-indol-3-yl]methylidene}-3-oxo-2,3-dihydro-1-benzofuran-5-yl]-3-methylurea] | – | 4.65 | 0.6 | 28.5 | 4.5 | –
COc1ccc2c(c1)c(C=C1Oc3cc(O)cc(O)c3C1=O)c(C)n2CCCCCl [Example 87, 2-{[1-(4-chlorobutyl)-5-methoxy-2-methyl-1H-indol-3-yl]methylene}-4,6-dihydroxy-1-benzofuran-3(2H)-one] | < 24 | 142 | – | 72 | 6 | –

Source: US20090311217A1, “3-SUBSTITUTED-1H-INDOLE COMPOUNDS, THEIR USE AS MTOR KINASE AND PI3 KINASE INHIBITORS, AND THEIR SYNTHESES” (priority 2008, published 2009)
